pIC50: −log10 of the molar value. Converted amounts (≈) assume the structure as drawn. The source made the active and inactive calls. No cut-off for these calls is given here.
Experiments:
[1] = target: Protein cereblon/Bromodomain-containing protein 2 (Homo sapiens) (UniProt P25440+Q96SW2); assay: PROTAC activity at CRBN/BRD2 in human MV4-11 cells assessed as degradation of BRD2 incubated for 4 hrs by immunoblot analysis relative to control; type: cell-based
[2] = Metabolic stability in mouse liver microsomes assessed as half life; type: ADME, Microsome; conditions: liver microsomes
[3] = Volume of distribution in female CD1 mouse at 3 mg/kg, iv measured upto 24 hrs by LC-MS/MS analysis; type: ADME, organism-based; conditions: in vivo
[4] = Effect on ZBTB21 level in human MV4-11 cells assessed as fold change at 100 nM measured after 4 hrs; type: functional
[5] = target: T1, Protein cereblon/Bromodomain-containing protein 4 (Homo sapiens, UniProt O60885+Q96SW2); assay: PROTAC activity at CRBN/Hibit-tagged BRD4 (unknown origin) expressed in HEK293 cells co-expressing LgBiT assessed as degradation of BRD4 incubated for 24 hrs by […] glo-max assay relative to control; type: cell-based
[6] = test system: MV4-11; assay: Cytotoxicity against human MV4-11 cells assessed as reduction in cell viability incubated for 72 hrs by cell-titer glo assay; type: functional, cell-based; conditions: MV4-11, 72 h
[7] = Effect on FYTTD1 level in human MV4-11 cells assessed as fold change at 100 nM measured after 4 hrs; type: functional
[8] = AUC last in female CD1 mouse at 10 mg/kg, po measured upto 24 hrs by LC-MS/MS analysis; type: ADME, organism-based; conditions: in vivo
[9] = Effect on NSA2 level in human MV4-11 cells assessed as fold change at 100 nM measured after 4 hrs; type: functional
[10] = Terminal elimination half life in female CD1 mouse at 3 mg/kg, iv measured upto 24 hrs by LC-MS/MS analysis; type: ADME, organism-based; conditions: in vivo, read-out: beta t1/2 (converted)
[11] = test system: MV4-11; assay: Downregulation of c-Myc level in human MV4-11 cells measured after 4 hrs by immunoblot analysis; type: functional, cell-based
[12] = Effect on CDC42EP3 level in human MV4-11 cells assessed as fold change at 100 nM measured after 4 hrs; type: functional
[13] = Effect on FGL2 level in human MV4-11 cells assessed as fold change at 100 nM measured after 4 hrs; type: functional
[14] = Effect on PLAU level in human MV4-11 cells assessed as fold change at 100 nM measured after 4 hrs; type: functional
[15] = test system: HEK293; assay: Cytotoxicity against HEK293 cells expressing LgBiT fused HiBiT-BRD2 measured after 24 hrs by cell titer-glo assay; type: toxicity, cell-based; conditions: human, hek293, 24 h
[16] = Effect on CCNF level in human MV4-11 cells assessed as fold change at 100 nM measured after 4 hrs; type: functional
[17] = target: Protein cereblon/Bromodomain-containing protein 3 (Homo sapiens) (UniProt Q15059+Q96SW2); assay: PROTAC activity at CRBN/BRD3 in human MV4-11 cells assessed as degradation of BRD3 incubated for 4 hrs by immunoblot analysis relative to control; type: cell-based
[18] = Effect on MCL1 level in human MV4-11 cells assessed as fold change at 100 nM measured after 4 hrs; type: functional
[19] = Oral bioavailability in female CD1 mouse at 10 mg/kg measured upto 24 hrs by LC-MS/MS analysis; type: ADME, organism-based; conditions: in vivo
[20] = Effect on AURKA level in human MV4-11 cells assessed as fold change at 100 nM measured after 4 hrs; type: functional
[21] = target: T2, Protein cereblon/Bromodomain-containing protein 4/DNA damage-binding protein 1 (Homo sapiens) (UniProt O60885+Q96SW2+Q16531); assay: Binding affinity to his-tagged CRBN/DDB1/GST-tagged BRD4 (49 to 170 residues)(unknown origin) assessed as ternary complex formation by measuring AUC incubated for 1 hr by luminescence based Alphascreen assay; type: protein assay
[22] = Stability in mouse plasma assessed as half life by UPLC-MS/MS analysis; type: ADME, cell-free
[23] = Effect on BRD4 level in human MV4-11 cells assessed as fold change at 100 nM measured after 4 hrs; type: functional
[24] = Effect on BRD2 level in human MV4-11 cells assessed as fold change at 100 nM measured after 4 hrs; type: functional
[25] = test system: MV4-11; assay: Upregulation of p53 level in human MV4-11 cells measured after 4 hrs by immunoblot analysis; type: functional, cell-based
[26] = Clearance in female CD1 mouse at 3 mg/kg, iv measured upto 24 hrs by LC-MS/MS analysis; type: ADME, organism-based; conditions: in vivo
[27] = Permeability in MDCK-II cells incubated for 1 hr by UPLC/MS/UV analysis; type: ADME, cell-based, Canis lupus familiaris; conditions: dog, read-out: permeability
[28] = Chemical stability in human MV4-11 cell culture media at 400 uM measured upto 72 hrs by UPLC analysis; type: physicochemical
[29] = target: T1, Protein cereblon/Bromodomain-containing protein 4; assay: PROTAC activity at CRBN/BRD4 in human MV4-11 cells assessed as degradation of BRD4 incubated for 4 hrs by immunoblot analysis; type: cell-based
[30] = Effect on MYC level in human MV4-11 cells assessed as fold change at 100 nM measured after 4 hrs; type: functional
[31] = Effect on NOP53 level in human MV4-11 cells assessed as fold change at 100 nM measured after 4 hrs; type: functional
[32] = target: Protein cereblon (Homo sapiens) (UniProt Q96SW2); assay: Binding affinity to CRBN (unknown origin)
[33] = Effect on RNF166 level in human MV4-11 cells assessed as fold change at 100 nM measured after 4 hrs; type: functional
[34] = Kinetic aqueous solubility of the compound at pH 7.4; type: physicochemical; conditions: read-out: Kinetic_solubility
[35] = target: T1, Protein cereblon/Bromodomain-containing protein 4; assay: PROTAC activity at CRBN/Hibit-tagged BRD4 (unknown origin) expressed in HEK293 cells co-expressing LgBiT assessed as degradation rate incubated for 24 hrs by […] glo-max assay; type: cell-based
[36] = target: T1, Protein cereblon/Bromodomain-containing protein 4; assay: PROTAC activity at CRBN/Hibit-tagged BRD4 (unknown origin) expressed in HEK293 cells co-expressing LgBiT assessed as degradation of BRD4 incubated for 24 hrs by […] glo-max assay; type: cell-based
[37] = Chemical stability in human HD-MB03 cell culture media at 400 uM measured upto 72 hrs by UPLC analysis; type: physicochemical
[38] = Effect on ZFP36L2 level in human MV4-11 cells assessed as fold change at 100 nM measured after 4 hrs; type: functional
[39] = Cmax in female CD1 mouse at 10 mg/kg, po measured upto 24 hrs by LC-MS/MS analysis; type: ADME, organism-based; conditions: in vivo
[40] = Effect on PLK1 level in human MV4-11 cells assessed as fold change at 100 nM measured after 4 hrs; type: functional
[41] = Effect on CCND3 level in human MV4-11 cells assessed as fold change at 100 nM measured after 4 hrs; type: functional
[42] = test system: HD-MB03; assay: Cytotoxicity against human HD-MB03 cells assessed as reduction in cell viability incubated for 72 hrs by cell-titer glo assay; type: functional, cell-based; conditions: HD-MB03, 72 h
[43] = AUC in female CD1 mouse at 3 mg/kg, iv measured upto 24 hrs by LC-MS/MS analysis; type: ADME, organism-based; conditions: in vivo
[44] = target: T2, Protein cereblon/Bromodomain-containing protein 4/DNA damage-binding protein 1 (Homo sapiens); assay: Binding affinity to his-tagged CRBN/DDB1/GST-tagged BRD4 (49 to 170 residues)(unknown origin) assessed as ternary complex formation (AUC) incubated for 1 hr by luminescence based Alphascreen assay; type: protein assay
[45] = Effect on TP53 level in human MV4-11 cells assessed as fold change at 100 nM measured after 4 hrs; type: functional
[46] = Effect on BRD3 level in human MV4-11 cells assessed as fold change at 100 nM measured after 4 hrs; type: functional
[47] = Permeability in human MV4-11 cells assessed as cell availability index relative to lenalidomide; type: ADME, cell-based
[48] = Chemical stability in human HD-MB03 cell culture media assessed as half life; type: physicochemical
[49] = Chemical stability in human MV4-11 cell culture media assessed as half life; type: physicochemical

Structure (SMILES): Cc1sc2c(c1C)C(c1ccc(Cl)cc1)=N[C@@H](CC(=O)N1CCC(CN3CCN(c4ccc(C5CCC(=O)NC5=O)cc4)CC3)CC1)c1nnc(C)n1-2 (some centres undefined)
- Activity [1]: > 90%
- half-life [2]: 1.3 h
- Vd [3]: 0.85 L/kg
- fold change (FC) [4]: -0.15
- Emax [5]: 96.9%
- pIC50 [6]: 9.92
- fold change (FC) [7]: -1.67
- AUC(0-t) at 24 h [8]: 8060 ng·h/mL
- fold change (FC) [9]: -1.05
- half-life [10]: 3.4 h
- Activity [11]: Active
- fold change (FC) [12]: -1.38
- fold change (FC) [13]: -1.16
- fold change (FC) [14]: -1.2
- Activity [15]: Non-toxic
- fold change (FC) [16]: -1.13
- Activity [17]: > 90%
- fold change (FC) [18]: -1.21
- bioavailability [19]: 45%
- fold change (FC) [20]: -0.97
- AUC [21]: 281000
- half-life [22]: 7.3 h
- fold change (FC) [23]: -3.85
- fold change (FC) [24]: -3.52
- Activity [25]: Active
- clearance [26]: 8.85 mL/min/kg
- Papp at 1 h [27]: 1.7 ×10⁻⁶ cm/s
- Stability [28]: Stable
- DC50 [29]: 0.127 nM
- fold change (FC) [30]: -2.05
- fold change (FC) [31]: -0.91
- Activity [32]: Active
- fold change (FC) [33]: -0.12
- solubility kinetic [34]: 48.4 µM (≈ 36.5 µg/mL)
- Activity [35]: 0.292 fRLU/hr
- DC50 [36]: 0.19 nM
- Stability [37]: Stable
- fold change (FC) [38]: -1.18
- Cmax [39]: 2440 ng/mL
- fold change (FC) [40]: -0.81
- fold change (FC) [41]: -0.99
- pIC50 [42]: 9.04
- AUC at 24 h [43]: 5540 ng·h/mL
- Activity [44]: Active
- fold change (FC) [45]: 1.92
- fold change (FC) [46]: -3.85

Structure (SMILES): Cc1sc2c(c1C)C(c1ccc(Cl)cc1)=N[C@@H](CC(=O)NCCCCNC(=O)COc1cccc3c1C(=O)N(C1CCC(=O)NC1=O)C3=O)c1nnc(C)n1-2 (some centres undefined)
- Ratio [47]: 140
- half-life [48]: 4.2 h
- half-life [49]: 4.2 h

From ChEMBL document CHEMBL6121036, “Evaluation of Cereblon-Directing Warheads for the Development of Orally Bioavailable PROTACs” (J Med Chem, 2025)
